Laboratory results published in PubChem BioAssay AID1583 (NINDS Approved Drug Screening Program, 2009).

What follows are compounds tested on polyglutamine-induced caspase-3 activation, cell assay (assay: blockers of polyQ-driven CASP3 activation – cell-based (AID 1583)).

SMILES | EC50 [nM]
CO[C@H]1[C@H](O)[C@@H](O[C@H]2CC[C@]3(C=O)C4CC[C@]5(C)[C@@H](C6=CC(=O)OC6)CC[C@]5(O)C4CC[C@@H]3C2)O[C@@H](C)[C@@H]1O (some centres undefined) | 93.2
C[C@@]1(C(=O)O)CC[C@]2(C)CC[C@]3(C)C4=CC=C5C=C(O)C(=O)C=C5[C@]4(C)CC[C@@]3(C)[C@@H]2C1 | 4630
CC(=O)O[C@H]1C[C@H](O[C@H]2[C@@H](O)C[C@H](O[C@H]3[C@@H](O)C[C@H](O[C@H]4CC[C@@]5(C)C(CCC6C5C[C@@H](O)[C@]5(C)[C@@H](C7=CC(=O)OC7)CC[C@]65O)C4)O[C@@H]3C)O[C@@H]2C)O[C@H](C)[C@H]1O[C@@H]1O[C@H](CO)[C@@H](O)[C@H](O)[C@H]1O (some centres undefined) | 7470
CCCCC(CC)CN=C(N)NC(N)=NCCCCCCN=C(N)NC(N)=NCC(CC)CCCC (centres undefined) | 1670
C[C@H]1O[C@@H](O[C@H]2[C@@H](O)C[C@H](O[C@H]3[C@@H](O)C[C@H](O[C@H]4CC[C@]5(C)C6CC[C@]7(C)[C@@H](C8=CC(=O)OC8)CC[C@]7(O)C6CC[C@@H]5C4)O[C@@H]3C)O[C@@H]2C)C[C@H](O)[C@@H]1O (some centres undefined) | 189
O[N+]1=CC=CCC1=S.On1ccccc1=S.[Zn] | 855
CO[C@H]1[C@H](O)[C@H](O[C@H]2CC[C@]3(C)C4CC[C@]5(C)C(C6=CC(=O)OC6)CC[C@]5(O)C4CC[C@@H]3C2)O[C@@H](C)[C@@H]1O (some centres undefined) | 78.6
C[C@]12CCC3C(CC[C@]4(O)C[C@@H](O)CC[C@]34C=O)[C@@]1(O)CCC2C1=CC(=O)OC1 (some centres undefined) | 1680
CC(=O)[O][Hg][c]1ccccc1 | 1740
